The text below walks through data of US20250381171A1, “COMBINATION OF DIHYDROBERBERINE AND ERGOTHIONEINE TO REDUCE OR INHIBIT ADVANCED GLYCATION END-PRODUCTS” (NANJING NUTRABUILDING BIO-TECH CO., LTD., priority 2023, published 2025).

One experiment deals with SOD. Nature of the experiment: SOD activity in skin of D-galactose-injected mice. Type of experiment: in vivo, Kunming mice. The settings on record: 14th week, 100 mg/kg each s.c. once daily for 6 weeks, vs non-supplementation group. The protocol:
(§1) Six-week-old, male, Kunming mice (n=40), weighed about 30±2 g, were obtained from Cavens Lab Animal (Changzhou, China) and housed in a controlled room (25±2° C., 60% relative humidity, 12 h light/dark cycle) with free access to water and standard laboratory diet. After an acclimation period (1 week), mice were randomly divided into four groups. Each mouse's back skin was chosen as the experimental observation area, a razor was used to shave off the back hair. 5% sodium sulfide solution was applied to the back to remove the hair. All mice were then injected subcutaneously with same volume of D-galactose (1000 mg/kg), once a day for 8 weeks. During the entire experiment, the daily food intake and weight of each mouse were recorded every day, and the D-galactose injection dose were adjusted according to the weight change. The four groups were non-supplement group (Con, Group 1); DHB supplement group (100 mg/kg, Group 2); EGT supplement group (100 mg/kg, Group 3); and EGT+DHB supplement group (100 mg/kg EGT+100 mg/kg DHB, Group 4). Mice in groups 2-4 were injected subcutaneously (s.c.) into their back skins with the corresponding concentration before each major meal once daily for 6 weeks. All mice were sacrificed after 6 weeks at the end of the experiment. […] The levels of H2O2, SOD, CAT, GSH, and GSH-Px in the skin were detected with relative kits as reference. […]

In the next experiment the test system is CAT. In words: CAT activity in skin of D-galactose-injected mice. Type of experiment: in vivo, Kunming mice. The settings on record: 14th week, 100 mg/kg each s.c. once daily for 6 weeks, vs non-supplementation group. The method, then:
as §1

The next experiment concerns GSH. Nature of the experiment: GSH activity in skin of D-galactose-injected mice. Type of experiment: in vivo, Kunming mice. The settings on record: 14th week, 100 mg/kg each s.c. once daily for 6 weeks, vs non-supplementation group. The method, then:
as §1

The next experiment deals with GSH-Px. In words: GSH-Px activity in skin of D-galactose-injected mice. It is filed as in vivo, Kunming mice. The settings on record: 14th week, 100 mg/kg each s.c. once daily for 6 weeks, vs non-supplementation group. The method, then: as §1
Experiment [1] concerns advanced glycation end products (AGEs) formed from bovine serum albumin (BSA) and D-ribose. In words: Measurement of glycation: fluorescence of AGEs from BSA incubated with D-ribose. It is filed as biochemical. The settings on record: BSA 1 mg/ml + D-ribose 10 mM, 37° C., 10 days; EGT 3 mM alone or DHB 3 mM + EGT 3 mM. The method, then:
The formulation of glycation products was observed placing together a bovine serum albumin (BSA) and D-ribose in the absence of DHB and EGT, EGT only and DHB and EGT combination.
Specifically, a solution of BSA at a concentration of 1 mg/ml dissolved in phosphate-buffered saline (PBS) was incubated at 37° C. for 10 days with D-ribose at a concentration of 10 mM, in the presence of EGT only (3 mM, Group 1) and the DHB (3 mM) and EGT (3 mM) combination (Group 2).
So, the glycation was evaluated by measuring the fluorescence of the AGEs at λem=450 nm emitted by each sample after excitation at λex=380 nm. The inhibition of glycation was visualized by the decrease in fluorescence compared with the samples treated with the sugar alone.

Regarding `COc1ccc2c(c1OC)CN1CCc3cc4c(cc3C1=C2)OCO4` [DHB, Dihydroberberine], the “SOD activity (in words)” value in the experiment on SOD was “significantly improved”. In the experiment with CAT, the “CAT activity (in words)” value was “significantly improved”. For the same compound, the “GSH activity (in words)” value in the experiment on GSH was “significantly improved”. Moreover, the “GSH-Px activity (in words)” value in the experiment with GSH-Px was “significantly improved”.
For `C[N+](C)(C)[C@@H](Cc1c[nH]c(=S)[nH]1)C(=O)[O-]` [EGT, ergothioneine], in experiment [1], the “anti-glycation activity (in words)” value is given as “fabulous anti-glycation activity”. Further, in the experiment on SOD, the “SOD activity (in words)” value is recorded as “significantly improved”. Further, in the experiment on CAT, the “CAT activity (in words)” value was “significantly improved”. Further, the “GSH activity (in words)” value in the experiment with GSH was “significantly improved”. Besides, the “GSH-Px activity (in words)” value in the experiment with GSH-Px was “significantly improved”.
